Measurements published in US5786517A, “Metal-ligand complex catalyzed processes” (Union Carbide Chemicals & Plastics Technology Corporation, priority 1996, dated 1998).

Key:
[1] = Extraction of base from butyraldehyde into equimolar aqueous H3PO3 (Example 5, Table A); assay type: physicochemical
Procedure: The following series of experiments were performed in order to determine the relationship of the pKa of a base to the effectiveness of the base to remain in the organic phase upon contact with an equimolar aqueous acid solution. In all cases the experiments were performed under nitrogen, unless otherwise specified.
Solutions were prepared by dissolving a quantity of acid or base in solvent so that the final concentration was equal to 0.1 moles/liter. The 1×10^-3 moles/liter solutions were prepared by taking an aliquot of the 0.1 moles/liter solution and diluting to the specified concentration. The 1×10^-5 moles/liter solutions were prepared in the same manner as the 1×10^-3 moles/liter solution with the modification of using an aliquot of the 1×10^-3 moles/liter solution in place of the 0.1 moles/liter solution.
In each extraction experiment, 5 milliliters of base solution in butyraldehyde was added to a clean, dry vial. To this vial was added 5 milliliters of equimolar H3 PO3 solution. The resulting mixture was rapidly shaken for several minutes and then allowed to phase separate. A 1 milliliter aliquot of the aqueous layer was then transferred to a clean, dry vial. To this vial was added 1 milliliter of pH 7 sodium/potassium phosphate buffer and 0.1 milliliter of Tergitol® 15-S-9 surfactant. The solution was shaken vigorously, and an aliquot was analyzed by high performance liquid chromatography for base content. The amount of base was then compared with a dichloromethane solution at the initial concentration. The partition coefficients calculated are for partitioning of the base from the organic phase to the water phase and is defined as K=amount of base in the water phase/amount of base in the organic phase.

[2] = Stability of Ligand F in rhodium-containing butyraldehyde solution by HPLC (Examples 2-4)
[3] = Partition of hydroxy butyl phosphonic acid between butyraldehyde and water (Example 1); assay type: physicochemical
Procedure: Into a glass vessel was added a stock solution of 536 parts per million of hydroxy butyl phosphonic acid in butyraldehyde. This solution was contacted with water in a weight ratio of 1.18:1 grams water to grams aldehyde/acid stock solution. The aldehyde and water phase were contacted thoroughly to allow the separation of acid between the organic and the aqueous layer to reach equilibrium. The aldehyde phase was analyzed for hydroxy butyl phosphonic acid by ion chromatography after contact with the water giving 52.3 parts per million of hydroxy butyl phosphonic acid. The water phase was also analyzed by ion chromatography for the acid. The water phase contained 414 parts per million of hydroxy butyl phosphonic acid. The partition coefficient between the water and the butyraldehyde phase was 414/52.3 or 7.92.

[4] = base 1 × 10^-3 moles/liter in butyraldehyde, H3PO3 1 × 10^-3 moles/liter
[5] = base 1 × 10^-5 moles/liter in butyraldehyde, H3PO3 1 × 10^-5 moles/liter
[6] = 536 ppm stock in butyraldehyde, 1.18:1 grams water to grams aldehyde/acid stock, ion chromatography

Row | Molecule | K (amount of base in the water phase/amount of base in the organic phase) [1, 4] | K (amount of base in the water phase/amount of base in the organic phase) [1, 5] | also measured
1 | O=C1CCCN1Cc1ccccc1 [1-benzyl-2-pyrrolidinone] | 0.02 | 0.00 | 
2 | CC(C)(C)c1cc(-c2cc(C(C)(C)C)cc(C(C)(C)C)c2Op2oc3ccccc3c3ccccc3o2)c(Op2oc3ccccc3c3ccccc3o2)c(C(C)(C)C)c1 [Ligand F] |  |  | concentration of Ligand F after 24 hours ([2]; 0.017 grams H3PO3 added to 12 gram solution, decreased from 0.39, 24 hours): 0.12 percent by weight; concentration of Ligand F after 72 hours ([2]; 0.017 grams H3PO3 added to 12 gram solution, initially 0.39, 72 hours): 0.04 percent by weight; change in concentration of Ligand F ([2]; after either 24 or 72 hours, 200 ppm rhodium, 0.39 wt% Ligand F in butyraldehyde, no added acid or benzimidazole): No change in the concentration
3 | c1ccc2[nH]nnc2c1 [benzotriazole] | 0.08 | 0.00 | 
4 | c1ccc2ncccc2c1 [quinoline] | 0.43 | 1.20 | 
5 | hydroxy butyl phosphonic acid |  |  | hydroxy butyl phosphonic acid in aldehyde phase after contact with water [3, 6]: 52.3 parts per million; hydroxy butyl phosphonic acid in water phase [3, 6]: 414 parts per million; partition coefficient between the water and the butyraldehyde phase ([3]; water/butyraldehyde, 414/52.3): 7.92
